Source: patent publication US10688194B2, “Cell penetrating peptides for intracellular delivery of molecules” (AADIGEN, LLC, priority 2012, dated 2020)
Each block holds one substance with its values, some of them ahead of it. {Cy5} = cyanine 5 fluorescent label

What was measured:
Cyclin B1 = assay: VEPEP-3 mediated delivery of antisense PNA, Cyclin B1 protein level; format: cell-based; details: different cultured cells
Text: VEPEP-3 peptides have been used for the delivery of nucleic acid analogues (PNA and morpholino) into different cell lines, including primary cell lines and challenging cell lines. […] We have applied VEPEP-3 strategy for the delivery of PNA antisense targeting Cyclin B1 as previously described (Morris et al, 2007).

PNA (15 mer-PNA) = assay: Fluorescence titration, VEPEP-3/cargo binding: PNA; details: cargo: 15 mer-PNA
Description: (§1) Fluorescence experiments were performed on a PTI spectrofluorimeter at 25° C. in a NaCl 154 mM buffer. Intrinsic Trp-fluorescence of VEPEP-3 was excited at 290 nm and emission spectrum was recorded between 310 and 400 nm, with a spectral band-pass of 2 and 8 nm for excitation and emission, respectively. FITC-fluorescence of labelled-peptide was excited at 492 nm and emission recorded between 500 and 580 nm. For VEPEP-3/peptide interaction, 0.5 μM of FITC-labelled peptide was titrated by increasing concentrations of VEPEP-3. All measurements were corrected for the dilution and curve fitting were performed by using Grafit software (Erithacus).
(§2) VEPEP-3 peptides also form stable particles with small aromatic molecules including Daunomycin, Paclitaxel, doxorubicin, porphyrin and charged molecules including nucleotide, nucleoside and peptide-analog of nucleic acids or fluorescent dyes (FIGS. 1A-1C). The dissociation constant for small hydrophobic molecule ranges between 0.05 to 2 μM, depending on the nature of the dyes and of the peptides.

[1] = Fluorescence titration, VEPEP-3/cargo binding: small hydrophobic molecule; details: cargo: Doxorubicine
Description: as §1, §2

[2] = system: Hela, MCF7, HEK-2, HS-68, and U2OS cells; assay: Cell cycle progression, controls; format: cell-based
Peptide (C4 and C2) = assay: Fluorescence titration, VEPEP-3/cargo binding: peptide
Description: as §1
(§3) VEPEP-3 peptide form stable complexes with peptides and proteins. The binding of cargos to VEPEP-3 was monitored by fluorescence spectroscopy using the […] intrinsic Trp groups of VEPEP-3 (3 to 5 Trp-residues) and extrinsic fluorescently labelled cargoes (using Cy3, Cy5 or FITC). Curve fitting reveal that VEPEP-3 strongly binds the different cargoes with dissociation constant in the nanomolar range (examples with VEPEP-3a, VEPEP-3C, and VEPEP-3g and three different cargoes are reported in FIGS. 1A-1C, all the data are reported in Table 1).

protein (GFP & Nanobody) = assay: Fluorescence titration, VEPEP-3/cargo binding: protein; details: cargo: protein (GFP & Nanobody)
Description: as §1, §3

Cyclic peptide (PC4) = assay: Fluorescence titration, VEPEP-3/cargo binding: cyclic peptide; details: cargo: Cyclic peptide (PC4)
Description: as §1, §3

Substance: TGC CAT CGG GCT TGG AGG-CY5 (antisense TGCCATCGGGCTTGGAGG; 3' {Cy5}, sugars by position and backbone not given here; further chemistry not fully specified) [PNA (Cyclin B1)]
downregulation of Cyclin B1 protein level (Cyclin B1): higher than 70%

Binding, PNA (PNA (15 mer-PNA)): Yes
Kd (PNA (15 mer-PNA)): 100 nM
Binding, SHM [1]: Yes
Kd ([1]; read-out: Kd, SHM): 1000 nM
Binding, peptide (Peptide (C4 and C2)): yes
Kd (Peptide (C4 and C2)): 10 to 20 nM
Binding, Protein (protein (GFP & Nanobody)): Yes
Kd (protein (GFP & Nanobody)): 1000 nM
Binding, Cyclic peptide (Cyclic peptide (PC4)): yes
Substance: X1KWFERWFREWPRKRR [VEPEP-3a]
effect on cell cycle progression ([2]; carrier alone (200 μM)): no effect

Substance: VTLMEAKKQVLT (HELM PEPTIDE1{[ac].V.T.L.M.E.A.K.K.Q.V.L.T.[SCCN[*:1]]}$$$$V2.0; SMILES CSCC[C@H](NC(=O)[C@H](CC(C)C)NC(=O)[C@@H](NC(=O)[C@@H](NC(C)=O)C(C)C)[C@@H](C)O)C(=O)N[C@@H](CCC(=O)O)C(=O)N[C@@H](C)C(=O)N[C@@H](CCCCN)C(=O)N[C@@H](CCCCN)C(=O)N[C@@H](CCC(N)=O)C(=O)N[C@H](C(=O)N[C@@H](CC(C)C)C(=O)N[C@H](C(=O)NCCS)[C@@H](C)O)C(C)C) [scrambled C2, reference compound]
effect on cell cycle progression ([2]; 500 nM, complexed with VEPEP-3a at a 20/1 ratio): no effect
